IC50 data for two molecules are collected here from US20210206763A1, “Anti-Proliferative Agents” (FEMTOGENIX LIMITED, priority 2015, published 2021).

As usually defined, the IC50 is the midpoint of a concentration-inhibition curve.

Common to all, as to type: cell-based
Test [1] deals with SK-BR-3 (HER2+++). Put plainly: In vitro cytotoxicity of ADCs. The note with it: Homo sapiens, 72 hour incubation. The procedure: (§1) The resulting ADCs were evaluated in vitro against relevant antigen positive cell-lines.
Test [2] concerns MCF-7 (HER2−). Put plainly: In vitro cytotoxicity of ADCs. The conditions noted are these: Homo sapiens, MCF7; 72 hour incubation. The method, then:
as §1

The test system of test [3] is ZR75-1 (HER2++) (Trastuzumab resistant). Put plainly: In vitro cytotoxicity of ADCs. The note with it: Homo sapiens, ZR-75-1; 72 hour incubation. The procedure:
as §1

Test [4] concerns Calu-3 (Lung). Put plainly: In vitro cytotoxicity of 41, cancer cell-line panel. The note with it: Homo sapiens, 72 hour incubation. The method, then:
(§2) Tumor cell lines were maintained in RPMI1640 medium supplemented with 10% heat-inactivated fetal bovine serum, 2 mM L-glutamine and 1 mM sodium pyruvate. 1800 cells per well were seeded in a volume of 180 μl in a 96-well flat bottom polystyrene plate. The cells were allowed to adhere overnight at 37° C. in a CO2 incubator. Ligands were initially formulated in DMSO, and stocks stored at −80° C. They were then further formulated at lox concentration in RPMI1640 medium. 20 ul of diluted samples were added into each treatment well. On each plate, blank wells with no cells, and untreated wells containing cells, were included. Plates were then cultured at 37° C. in a CO2 incubator for 72 hrs. Cytotoxicity was evaluated using a tetrazolium salt-based assay, the MIT assay. After 72 hours, the supernatant was removed from each well and 200 μl of a sterile filtered 500 μg/ml MTT solution in water added to each well. The plates were then incubated at 37° C. in a CO2 incubator for 4 hrs. The supernatant was then removed and the formazan crystals formed solubilized by adding 15(411 of DMSO to each well. The plate was then read on a plate reader at 540 nm, and percentage cell survival calculated as follows: ((mean absorbance treated wells at concentration x−mean absorbance blank wells)÷(mean absorbance untreated wells at concentration x−mean absorbance blank wells))×100. Data were plotted as concentration in nM vs. % cell survival in Microsoft Excel, and IC50 values (concentration where cell survival is reduced by a half) were determined from the graph.

The test system of test [5] is SK-MEL-5 (Melanoma). Described as above. The note with it: Homo sapiens, 72 hour incubation. The method, then: as §2
Test [6] concerns SW480 (Colorectal). Described as above. The conditions noted are these: Homo sapiens, 72 hour incubation. The method, then: as §2
The test system of test [7] is BxPC3 (Pancreas). The description is as above. The conditions noted are these: Homo sapiens, BXPC-3; 72 hour incubation. The method, then: as §2
For test [8], the system named is AGS (Gastric). The test is described as above. The note with it: 72 hour incubation. The procedure:
as §2

The test system of test [9] is PC3 (Prostate). The test is described as above. The conditions noted are these: 72 hour incubation. The method, then:
as §2

The test system of test [10] is 786-O (Renal Cell, CD70). The test is described as above. The conditions noted are these: Homo sapiens, 786-0; 72 hour incubation. The method, then: as §2
Test [11] concerns LnCap (Prostate). The test is described as above. The conditions noted are these: Homo sapiens, 72 hour incubation. The method, then:
as §2

Test [12] has as its system A549 (Lung). The test is described as above. The note with it: Homo sapiens, 72 hour incubation. The procedure:
as §2

Test [13] relates to HL60 (APML). Described as above. The conditions noted are these: Homo sapiens, HL-60; 72 hour incubation. The procedure:
as §2

Test [14] relates to EC Cancer Stem Cell (Cancer stem cells). Described as above. The conditions noted are these: 72 hour incubation. The method, then:
as §2

Test [15] deals with AML2 (AML). Described as above. The note with it: 72 hour incubation. The procedure: as §2
Test [16] concerns A375 (Skin). The test is described as above. The conditions noted are these: Homo sapiens, A-375; 72 hour incubation. The procedure:
as §2

The test system of test [17] is SK-HEP-1 (Liver). Described as above. The note with it: Homo sapiens, SK-HEP1; 72 hour incubation. The procedure:
as §2

Consider `COc1cc2c(cc1OCCCC(=O)Nc1cc(C(=O)Nc3ccc(-c4cc(C(=O)Nc5ccc(N)cc5)n(C)c4)cc3)n(C)c1)N=C[C@@H]1CCCCN1C2=O` [Compound 41, (S)—N-(4-aminophenyl)-4-(4-(4-(4-((2-methoxy-12-oxo-6a,7,8,9,10,12-hexahydrobenzo[e]pyrido[1,2-a][1,4]diazepin-3-yl)oxy)butanamido)-1-methyl-1H-pyrrole-2-carboxamido)phenyl)-1-methyl-1H-pyrrole-2-carboxamide], for which the values for the IC50 in [1], in [2] and in test [3] were 0.086 nM, 0.289 nM and 0.63 nM, respectively.

Consider `COc1cc2c(cc1OCCCC(=O)Nc1cc(C(=O)Nc3ccc(-c4cc(C(=O)Nc5ccc(N)cc5)n(C)c4)cc3)n(C)c1)N=C[C@@H]1CCCCN1C2=O` [Compound 41], for which the IC50 in test [4] came to 0.65 nM; in test [5] it was 0.39 nM; in test [6], 0.29 nM; in test [7], 0.43 nM; in [8] it was 0.07 nM; in test [9], 0.36 nM. Also, the IC50 in [10] was determined as 0.53 nM; in [11] it was 0.47 nM; in test [12], 0.18 nM; in test [13] it was 0.009 nM; in test [14], 2.64 nM; in test [15], 0.016 nM. Further, the IC50 is 0.28 nM in test [16] and 0.32 nM in [17].
